Test results reported in ChEMBL document CHEMBL1201862, “PubChem BioAssay data set” (2004).
Blank lines part the entries; values can stand above or below the compound they belong to. Calls of active or inactive are those of the source.

Assays:
[1] = target: Cyclin-dependent kinase 2 (Homo sapiens, UniProt P24941); assay: inhibition of human CDK2/cyclin A – biochemical, cherry-picked samples, selectivity assay for Dyrk1A inhibitor project, dose response (AID 602127)
[2] = target: Dual specificity protein kinase CLK1 (Homo sapiens, UniProt P49759); assay: inhibition of human CLK1 activity – biochemical, cherry-picked samples, selectivity assay for Dyrk1A inhibitor project, dose response (AID 588811)
[3] = target: Homeodomain-interacting protein kinase 2 (Homo sapiens, UniProt Q9H2X6); type: functional;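 further: measured within a kinome-wide kinase profiling panel, HIPK2 being one panel member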
[4] = target: Cyclin-dependent kinase 7 (Homo sapiens, UniProt P50613); type: functional;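 further: value comes from a kinome-wide kinase profiling panel in which CDK7 is one member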
[5] = target: T1, Interleukin-1 receptor-associated kinase 4 (Homo sapiens, UniProt Q9NWZ3); type: functional
T1 sequence (Q9NWZ3 whole entry): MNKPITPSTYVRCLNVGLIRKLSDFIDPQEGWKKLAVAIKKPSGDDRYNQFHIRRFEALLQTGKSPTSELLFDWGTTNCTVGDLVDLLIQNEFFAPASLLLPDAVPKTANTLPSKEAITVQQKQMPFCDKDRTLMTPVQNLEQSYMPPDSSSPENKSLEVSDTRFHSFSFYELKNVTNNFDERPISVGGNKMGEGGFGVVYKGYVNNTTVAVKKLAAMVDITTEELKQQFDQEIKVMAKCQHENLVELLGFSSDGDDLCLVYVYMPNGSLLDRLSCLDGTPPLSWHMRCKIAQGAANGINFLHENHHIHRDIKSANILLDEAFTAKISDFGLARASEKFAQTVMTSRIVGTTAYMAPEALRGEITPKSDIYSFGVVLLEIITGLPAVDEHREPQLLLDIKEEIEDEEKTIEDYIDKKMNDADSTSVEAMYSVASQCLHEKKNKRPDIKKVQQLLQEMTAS

[6] = target: cAMP-dependent protein kinase catalytic subunit alpha (Homo sapiens, UniProt P17612); type: functional
[7] = target: Mitogen-activated protein kinase kinase kinase kinase 4 (Homo sapiens, UniProt O95819); type: functional
[8] = target: Serine/threonine-protein kinase pim-1 (Homo sapiens, UniProt P11309); type: functional
[9] = target: Cell division cycle 7-related protein kinase (Homo sapiens, UniProt O00311); type: functional;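 further: value obtained from a kinome-wide kinase panel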
[10] = target: Cyclin-dependent kinase 9 (Homo sapiens, UniProt P50750); type: functional;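 further: value from the CDK9 entry of a kinome-spanning kinase panel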
[11] = target: Cyclin-dependent kinase 5 (Homo sapiens, UniProt Q00535); type: functional;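 further: CDK5 measured as one member of a kinase profiling panel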
[12] = target: Cyclin-dependent kinase 8 (Homo sapiens, UniProt P49336); assay: Navigating the Kinome. Panel member name: CDK8; type: functional
[13] = target: Dual specificity protein kinase CLK4 (Homo sapiens, UniProt Q9HAZ1); type: functional
Sequence of Dual specificity protein kinase CLK4 (Q9HAZ1 whole entry): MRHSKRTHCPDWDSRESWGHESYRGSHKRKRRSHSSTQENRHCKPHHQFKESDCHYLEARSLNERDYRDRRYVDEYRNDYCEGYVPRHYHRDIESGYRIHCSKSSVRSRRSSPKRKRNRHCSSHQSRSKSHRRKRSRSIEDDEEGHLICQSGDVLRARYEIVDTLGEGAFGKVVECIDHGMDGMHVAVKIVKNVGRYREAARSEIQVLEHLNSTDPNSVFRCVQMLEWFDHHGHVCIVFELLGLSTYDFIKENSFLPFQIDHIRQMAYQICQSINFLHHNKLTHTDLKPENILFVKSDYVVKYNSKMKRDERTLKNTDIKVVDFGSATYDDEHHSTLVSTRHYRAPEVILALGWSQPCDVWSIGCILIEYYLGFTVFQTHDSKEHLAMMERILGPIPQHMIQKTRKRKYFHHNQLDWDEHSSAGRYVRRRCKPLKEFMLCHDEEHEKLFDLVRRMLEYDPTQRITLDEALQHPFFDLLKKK

Sequence of Mitogen-activated protein kinase kinase kinase kinase 4 (O95819 whole entry): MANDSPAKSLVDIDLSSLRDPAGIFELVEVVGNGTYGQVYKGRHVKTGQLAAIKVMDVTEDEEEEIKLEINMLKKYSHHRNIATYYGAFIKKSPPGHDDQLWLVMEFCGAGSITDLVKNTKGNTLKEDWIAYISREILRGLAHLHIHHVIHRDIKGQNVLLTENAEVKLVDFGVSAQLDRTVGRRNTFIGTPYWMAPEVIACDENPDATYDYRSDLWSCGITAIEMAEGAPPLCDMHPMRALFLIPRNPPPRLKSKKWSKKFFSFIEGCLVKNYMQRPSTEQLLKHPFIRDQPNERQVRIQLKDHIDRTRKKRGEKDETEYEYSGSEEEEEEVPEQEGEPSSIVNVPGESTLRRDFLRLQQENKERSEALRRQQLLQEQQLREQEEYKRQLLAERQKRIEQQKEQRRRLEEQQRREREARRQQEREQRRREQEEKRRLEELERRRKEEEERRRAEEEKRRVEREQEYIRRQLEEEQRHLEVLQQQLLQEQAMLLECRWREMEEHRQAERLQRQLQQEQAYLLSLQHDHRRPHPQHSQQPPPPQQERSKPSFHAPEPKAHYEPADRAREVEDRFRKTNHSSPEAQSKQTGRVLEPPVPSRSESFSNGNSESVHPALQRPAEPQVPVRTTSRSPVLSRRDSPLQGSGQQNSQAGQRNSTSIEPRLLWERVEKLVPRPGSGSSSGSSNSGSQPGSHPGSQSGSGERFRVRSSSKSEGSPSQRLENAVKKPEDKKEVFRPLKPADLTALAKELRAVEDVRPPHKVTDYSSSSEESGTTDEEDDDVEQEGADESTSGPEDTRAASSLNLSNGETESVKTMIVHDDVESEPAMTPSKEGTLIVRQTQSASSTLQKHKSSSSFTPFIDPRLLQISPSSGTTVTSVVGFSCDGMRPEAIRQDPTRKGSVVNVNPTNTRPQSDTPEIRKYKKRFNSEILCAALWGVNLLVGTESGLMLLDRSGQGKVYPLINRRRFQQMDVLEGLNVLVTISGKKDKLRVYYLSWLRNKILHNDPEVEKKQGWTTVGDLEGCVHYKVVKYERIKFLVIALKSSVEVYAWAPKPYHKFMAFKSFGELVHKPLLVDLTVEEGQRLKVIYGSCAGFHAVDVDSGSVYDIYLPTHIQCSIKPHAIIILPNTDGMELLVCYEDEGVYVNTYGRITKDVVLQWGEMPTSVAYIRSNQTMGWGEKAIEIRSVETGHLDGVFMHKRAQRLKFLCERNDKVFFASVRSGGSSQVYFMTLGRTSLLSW
Sequence of Cyclin-dependent kinase 8 (P49336 whole entry): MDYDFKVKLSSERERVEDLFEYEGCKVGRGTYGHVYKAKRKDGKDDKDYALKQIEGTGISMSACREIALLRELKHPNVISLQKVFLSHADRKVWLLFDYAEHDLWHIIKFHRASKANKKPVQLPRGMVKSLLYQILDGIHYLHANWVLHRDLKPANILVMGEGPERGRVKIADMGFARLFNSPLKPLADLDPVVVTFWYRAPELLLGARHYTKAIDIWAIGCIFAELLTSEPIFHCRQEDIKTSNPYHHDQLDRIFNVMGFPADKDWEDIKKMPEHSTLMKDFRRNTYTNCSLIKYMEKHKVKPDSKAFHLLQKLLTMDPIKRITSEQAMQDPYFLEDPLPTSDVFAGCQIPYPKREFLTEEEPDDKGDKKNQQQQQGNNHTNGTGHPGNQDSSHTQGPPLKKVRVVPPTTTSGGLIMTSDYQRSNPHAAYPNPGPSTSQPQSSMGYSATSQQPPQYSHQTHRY
Sequence of Dual specificity protein kinase CLK1 (P49759 whole entry): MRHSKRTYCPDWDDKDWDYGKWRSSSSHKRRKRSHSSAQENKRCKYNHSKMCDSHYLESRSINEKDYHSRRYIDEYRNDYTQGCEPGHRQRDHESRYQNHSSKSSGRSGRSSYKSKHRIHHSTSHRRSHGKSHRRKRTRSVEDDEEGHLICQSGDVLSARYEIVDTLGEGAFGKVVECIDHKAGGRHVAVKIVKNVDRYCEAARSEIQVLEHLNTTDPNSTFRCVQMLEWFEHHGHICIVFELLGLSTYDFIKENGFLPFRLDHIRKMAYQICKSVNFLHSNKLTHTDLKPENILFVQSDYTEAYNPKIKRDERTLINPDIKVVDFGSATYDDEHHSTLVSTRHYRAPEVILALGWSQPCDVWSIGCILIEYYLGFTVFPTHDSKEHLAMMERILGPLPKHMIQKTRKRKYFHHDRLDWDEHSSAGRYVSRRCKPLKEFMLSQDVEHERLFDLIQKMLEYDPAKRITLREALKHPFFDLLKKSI
Sequence of Cyclin-dependent kinase 5 (Q00535 whole entry): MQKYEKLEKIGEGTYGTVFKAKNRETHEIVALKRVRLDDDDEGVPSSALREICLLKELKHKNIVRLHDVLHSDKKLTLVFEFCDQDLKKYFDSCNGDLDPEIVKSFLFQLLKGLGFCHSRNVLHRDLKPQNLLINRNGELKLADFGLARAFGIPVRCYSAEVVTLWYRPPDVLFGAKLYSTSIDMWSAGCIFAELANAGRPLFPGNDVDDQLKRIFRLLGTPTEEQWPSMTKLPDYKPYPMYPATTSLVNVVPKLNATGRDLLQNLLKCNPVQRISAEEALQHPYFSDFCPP
Sequence of Homeodomain-interacting protein kinase 2 (Q9H2X6 whole entry): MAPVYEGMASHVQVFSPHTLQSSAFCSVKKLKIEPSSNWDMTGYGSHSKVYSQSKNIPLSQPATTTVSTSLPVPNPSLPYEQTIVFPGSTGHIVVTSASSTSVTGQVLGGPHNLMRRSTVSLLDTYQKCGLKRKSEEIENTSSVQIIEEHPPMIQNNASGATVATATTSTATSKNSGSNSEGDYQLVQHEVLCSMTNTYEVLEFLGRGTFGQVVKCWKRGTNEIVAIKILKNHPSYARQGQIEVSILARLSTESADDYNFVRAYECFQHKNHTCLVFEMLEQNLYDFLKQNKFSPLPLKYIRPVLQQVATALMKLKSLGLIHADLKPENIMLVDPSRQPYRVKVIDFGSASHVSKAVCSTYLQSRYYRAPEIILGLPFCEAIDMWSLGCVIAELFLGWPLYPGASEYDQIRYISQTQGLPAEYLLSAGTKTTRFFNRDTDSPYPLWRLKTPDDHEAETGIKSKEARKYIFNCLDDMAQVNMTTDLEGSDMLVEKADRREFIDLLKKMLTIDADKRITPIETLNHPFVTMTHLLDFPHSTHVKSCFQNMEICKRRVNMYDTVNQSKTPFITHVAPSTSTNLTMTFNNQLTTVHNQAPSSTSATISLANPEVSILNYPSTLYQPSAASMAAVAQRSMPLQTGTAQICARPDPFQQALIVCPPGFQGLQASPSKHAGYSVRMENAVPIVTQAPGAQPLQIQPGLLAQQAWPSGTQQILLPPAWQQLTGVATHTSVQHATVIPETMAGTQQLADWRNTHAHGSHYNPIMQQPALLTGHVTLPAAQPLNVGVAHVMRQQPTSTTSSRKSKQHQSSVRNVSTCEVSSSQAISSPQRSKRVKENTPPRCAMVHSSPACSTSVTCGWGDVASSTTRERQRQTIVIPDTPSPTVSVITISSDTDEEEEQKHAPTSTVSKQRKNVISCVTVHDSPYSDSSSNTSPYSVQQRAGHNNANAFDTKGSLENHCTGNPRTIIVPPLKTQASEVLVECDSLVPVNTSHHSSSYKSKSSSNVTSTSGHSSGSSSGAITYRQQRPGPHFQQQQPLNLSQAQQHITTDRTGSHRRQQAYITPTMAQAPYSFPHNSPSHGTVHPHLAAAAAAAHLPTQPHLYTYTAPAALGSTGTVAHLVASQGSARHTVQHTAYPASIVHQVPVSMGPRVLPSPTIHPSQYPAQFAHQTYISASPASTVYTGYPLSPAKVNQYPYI
Sequence of Cell division cycle 7-related protein kinase (O00311 whole entry): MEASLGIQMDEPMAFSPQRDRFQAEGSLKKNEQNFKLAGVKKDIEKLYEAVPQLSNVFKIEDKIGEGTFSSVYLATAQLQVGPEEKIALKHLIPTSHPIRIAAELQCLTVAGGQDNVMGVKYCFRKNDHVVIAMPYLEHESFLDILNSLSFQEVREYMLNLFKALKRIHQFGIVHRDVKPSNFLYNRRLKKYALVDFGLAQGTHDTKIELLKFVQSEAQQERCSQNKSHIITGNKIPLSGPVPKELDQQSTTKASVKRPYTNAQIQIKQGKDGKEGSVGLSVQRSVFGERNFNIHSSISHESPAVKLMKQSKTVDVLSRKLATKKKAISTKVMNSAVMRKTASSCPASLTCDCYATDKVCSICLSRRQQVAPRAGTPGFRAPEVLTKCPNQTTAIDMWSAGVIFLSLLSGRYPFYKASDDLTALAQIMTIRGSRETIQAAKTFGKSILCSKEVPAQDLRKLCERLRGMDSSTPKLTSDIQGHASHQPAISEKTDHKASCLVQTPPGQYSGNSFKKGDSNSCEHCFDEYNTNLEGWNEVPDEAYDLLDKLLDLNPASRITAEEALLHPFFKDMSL
Sequence of Serine/threonine-protein kinase pim-1 (P11309 whole entry): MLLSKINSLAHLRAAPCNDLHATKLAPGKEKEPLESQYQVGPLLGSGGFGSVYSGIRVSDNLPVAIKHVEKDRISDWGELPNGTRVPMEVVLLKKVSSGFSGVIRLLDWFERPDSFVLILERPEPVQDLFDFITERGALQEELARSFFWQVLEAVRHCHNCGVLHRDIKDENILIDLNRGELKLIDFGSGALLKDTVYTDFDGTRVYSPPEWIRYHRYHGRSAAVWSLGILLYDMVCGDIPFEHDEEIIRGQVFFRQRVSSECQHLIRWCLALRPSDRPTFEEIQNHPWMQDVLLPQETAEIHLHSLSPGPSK

AC50 [1]: 15100 nM (active)
AC50 [2]: 116 nM (active)
Structure (SMILES): Cc1c(-c2ccnc(NCc3cccnc3)n2)sc(=O)n1C

Ki [3]: 3.98 nM (active)
Ki [4]: 5.01 nM (active)
Ki [5]: 39.8 nM (active)
Ki [6]: 200 nM (active)
Ki [7]: 25.1 nM (active)
Ki [8]: 2510 nM (active)
Ki [9]: 5.01 nM (active)
Ki [10]: 39.8 nM (active)
Structure (SMILES): NC(=O)c1ccccc1Nc1nc(Nc2ccccc2)ncc1C(F)(F)F

Ki [11]: 50100 nM (active)
Ki [12]: 50100 nM (active)
Ki [13]: 31600 nM (active)
Structure (SMILES): CC(C)(O)c1c(-c2ccccc2)n[nH]c(=O)c1N
